Publication PMC7377239, “Cardiovascular Effects of Polychlorinated Biphenyls and Their Major Metabolites” (Environmental Health Perspectives, 2020)
Where two headings read alike, the source gives them in different places.

Legend:
[1] = system: HUVECs; assay: High-content imaging cytotoxicity in HUVECs, 24 h; format: cell-based, human; conditions: Homo sapiens, HUVEC, 24 h; for viability at 0.01 µM / activity at 0.01 µM / viability at 0.1 µM / activity at 0.1 µM / viability at 1 µM / activity at 1 µM / viability at 10 µM / activity at 10 µM / viability at 100 µM / activity at 100 µM: 0.00 µM = 100.00; for viability at 0.1 µM / activity at 0.1 µM: 0.10 µM
Method in brief: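 HUVECs (passages 1–5) were plated at 750 cells/well without fibronectin, grown to a monolayer (3–5 d) and exposed to compounds for 24 h at 37°C, 5% CO2. Hoechst 33342, MitoTracker Orange and calcein AM staining was imaged at 10×; readouts were normalized to 0.5% DMSO vehicle and fit to a four-parameter logistic model.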

[2] = system: iCell endothelial cells (human iPSC-derived ECs); assay: Tube formation (tubulogenesis) assay in iCell endothelial cells, 18 h; format: cell-based; conditions: Homo sapiens, Endothelial cell, 18 hr; for activity at 0.1 µM: 0.10 µM
Method in brief: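 iCell ECs (passages 1–5) seeded 7,500 cells/well on reduced-growth-factor Geltrex in starvation medium, exposed overnight at 37°C to compounds in triplicate concentration–response (0.5% DMSO vehicle). Calcein AM staining, 4× imaging, angiogenesis image analysis; readouts normalized to vehicle, four-parameter logistic fit, POD at 1 SD of vehicle; 100 μM assigned NOAEL if no response.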

[3] = HUVECs, 24 hr, read-out: huvec.cyto.24hr
[4] = HUVECs, 24 hr, read-out: huvec.mito.24hr
[5] = HUVECs, 24 hr, read-out: huvec.mitoint.24hr
[6] = HUVECs, 24 hr, read-out: huvec.nma.24hr
[7] = HUVECs, 24 hrs, read-out: huvec.tc.24hrs
[8] = iPSC-EC tube formation, 0.00 µM control = 100.00, read-out: endo.mtl.18hr
[9] = iPSC-EC tube formation, 0.00 µM control = 100.00, read-out: endo.tlps.18hr
[10] = iPSC-EC tube formation, 0.00 µM control = 100.00, read-out: endo.tta.18hr
[11] = iPSC-EC tube formation, 0.00 µM control = 100.00, read-out: endo.ttl.18hr

SMILES: Oc1cc(Cl)cc(-c2cccc(Cl)c2)c1 [5-OH PCB 11]
- viability at 0.01 µM [1, 3]: 94.6%
- activity at 0.01 µM [1, 4]: 93.1%
- activity at 0.01 µM [1, 5]: 89.8%
- activity at 0.01 µM [1, 6]: 98.5%
- viability at 0.1 µM [1, 3]: 87.5%
- activity at 0.1 µM [1, 4]: 86.8%
- activity at 0.1 µM [1, 5]: 107%
- activity at 0.1 µM [1, 6]: 111%
- viability at 1 µM [1, 3]: 93.9%
- activity at 1 µM [1, 4]: 93.3%
- activity at 1 µM [1, 5]: 101%
- activity at 1 µM [1, 6]: 99.7%
- viability at 10 µM [1, 3]: 35.9%
- activity at 10 µM [1, 4]: 29.1%
- activity at 10 µM [1, 5]: 17.5%
- activity at 10 µM [1, 6]: 69.5%
- viability at 100 µM [1, 3]: 24.1%
- activity at 100 µM [1, 4]: 13.2%
- activity at 100 µM [1, 5]: 12%
- activity at 100 µM [1, 6]: 77.5%
- minimal effective concentration ([1]; HUVECs, 24 hr, top concentration 100.00 µM, read-out: huvec.cyto.24hr POD): 0.95 µM
- minimal effective concentration ([1]; HUVECs, 24 hr, top concentration 100.00 µM, read-out: huvec.mito.24hr POD): 0.84 µM
- minimal effective concentration ([1]; HUVECs, 24 hr, top concentration 100.00 µM, read-out: huvec.mitoint.24hr POD): 3.3 µM
- minimal effective concentration ([1]; HUVECs, 24 hr, top concentration 100.00 µM, read-out: huvec.nma.24hr POD): 1.22 µM
- viability at 0.01 µM [1, 7]: 94.6%
- viability at 0.1 µM [1, 7]: 87.5%
- viability at 1 µM [1, 7]: 93.9%
- viability at 10 µM [1, 7]: 36%
- viability at 100 µM [1, 7]: 26.8%
- minimal effective concentration ([1]; HUVECs, 24 hrs, top concentration 100.00 µM, read-out: huvec.tc.24hrs POD): 0.95 µM
- activity at 0.01 µM [2, 8]: 117%
- activity at 0.01 µM [2, 9]: 105%
- activity at 0.01 µM [2, 10]: 155%
- activity at 0.01 µM [2, 11]: 155%
- activity at 0.1 µM [2, 8]: 102%
- activity at 0.1 µM [2, 9]: 110%
- activity at 0.1 µM [2, 10]: 125%
- activity at 0.1 µM [2, 11]: 125%
- activity at 1 µM [2, 8]: 109%
- activity at 1 µM [2, 9]: 124%
- activity at 1 µM [2, 10]: 134%
- activity at 1 µM [2, 11]: 132%
- activity at 10 µM [2, 8]: 53.8%
- activity at 10 µM [2, 9]: 26.9%
- activity at 10 µM [2, 10]: 38.5%
- activity at 10 µM [2, 11]: 37.3%
- activity at 100 µM [2, 8]: 46.3%
- activity at 100 µM [2, 9]: 12.3%
- activity at 100 µM [2, 10]: 1.58%
- activity at 100 µM [2, 11]: 2.12%
- minimal effective concentration ([2]; iPSC-EC tube formation, top concentration 100.00 µM, read-out: endo.mtl.18hr POD): 5.28 µM
- minimal effective concentration ([2]; iPSC-EC tube formation, top concentration 100.00 µM, read-out: endo.tlps.18hr POD): 5.71 µM
- minimal effective concentration ([2]; iPSC-EC tube formation, top concentration 100.00 µM, read-out: endo.tta.18hr POD): 6.97 µM
- minimal effective concentration ([2]; iPSC-EC tube formation, top concentration 100.00 µM, read-out: endo.ttl.18hr POD): 7.34 µM

SMILES: Oc1ccc(-c2cccc(Cl)c2)cc1Cl [4-OH-PCB 11]
- minimal effective concentration ([1]; cyto, 24 hr, read-out: POD huvec.cyto.24hr): 1.37 µM
- minimal effective concentration ([1]; mito, 24 hr, read-out: POD huvec.mito.24hr): 1.2 µM
- minimal effective concentration ([1]; mitoint, 24 hr, read-out: POD huvec.mitoint.24hr): 5.43 µM
- minimal effective concentration ([1]; nma, 24 hr, read-out: POD huvec.nma.24hr): 0.99 µM
- minimal effective concentration ([1]; tc, 24 hr, read-out: POD huvec.tc.24hr): 1.37 µM
- minimal effective concentration ([2]; endothelial cells (endo), tube formation mtl, read-out: POD endo.mtl.18hr): 17.7 µM
- minimal effective concentration ([2]; endothelial cells (endo), tube formation tlps, read-out: POD endo.tlps.18hr): 52.5 µM
- minimal effective concentration ([2]; endothelial cells (endo), tube formation tta, read-out: POD endo.tta.18hr): 15.8 µM
- minimal effective concentration ([2]; endothelial cells (endo), tube formation ttl, read-out: POD endo.ttl.18hr): 16.1 µM
